Test results reported in patent US9481885B2, “Methods and compositions related to miR-21 and miR-29a, exosome inhibition, and cancer metastasis” (Ohio State Innovation Foundation, priority 2011, dated 2016).

Target: T1, human TLR8 (Homo sapiens, UniProt Q9NR97)
T1 construct: host or cells: HEK-Blue TLR8 293 (TLR8-HEK-293)
T1 sequence (Q9NR97 27-1041): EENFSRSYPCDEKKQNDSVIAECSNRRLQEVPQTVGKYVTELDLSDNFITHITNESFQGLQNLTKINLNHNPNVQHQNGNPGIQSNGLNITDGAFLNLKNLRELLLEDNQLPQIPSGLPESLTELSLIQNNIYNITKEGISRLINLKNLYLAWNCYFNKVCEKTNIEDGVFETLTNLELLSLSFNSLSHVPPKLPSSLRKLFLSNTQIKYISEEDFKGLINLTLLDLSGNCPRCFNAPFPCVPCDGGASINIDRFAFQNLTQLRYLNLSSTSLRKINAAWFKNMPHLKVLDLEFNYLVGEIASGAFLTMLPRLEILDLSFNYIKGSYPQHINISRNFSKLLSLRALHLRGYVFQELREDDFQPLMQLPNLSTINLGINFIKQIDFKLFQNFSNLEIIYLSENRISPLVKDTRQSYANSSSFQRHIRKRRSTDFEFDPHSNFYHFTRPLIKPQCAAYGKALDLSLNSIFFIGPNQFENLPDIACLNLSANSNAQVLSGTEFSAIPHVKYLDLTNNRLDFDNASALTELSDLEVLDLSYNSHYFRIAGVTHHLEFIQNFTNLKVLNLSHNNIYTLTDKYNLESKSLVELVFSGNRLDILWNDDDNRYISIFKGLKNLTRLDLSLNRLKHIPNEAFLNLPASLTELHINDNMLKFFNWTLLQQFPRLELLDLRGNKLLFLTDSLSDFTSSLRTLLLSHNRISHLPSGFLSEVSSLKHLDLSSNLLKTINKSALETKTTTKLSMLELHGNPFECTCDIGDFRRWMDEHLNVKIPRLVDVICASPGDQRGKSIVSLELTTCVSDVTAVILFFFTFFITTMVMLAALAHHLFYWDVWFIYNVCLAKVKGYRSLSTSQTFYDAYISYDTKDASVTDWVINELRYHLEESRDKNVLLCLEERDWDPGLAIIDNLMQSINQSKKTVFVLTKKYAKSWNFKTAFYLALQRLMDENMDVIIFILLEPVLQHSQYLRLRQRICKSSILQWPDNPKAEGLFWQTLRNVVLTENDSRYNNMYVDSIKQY
Test: NF-κB reporter assay (QUANTI-Blue) in TLR8-HEK-293 cells
Type: cell-based
Details: Dotap formulations of miRNA
Protocol: To investigate whether miRNA-induced activation of TLRs also occurs in human cells, an NF-κB reporter assay was performed in HEK-293 cells. NF-κB, a transcription factor modulating the expression of several cytokine genes, is activated by several TLRs, including the only ssRNA-binding human TLRs, TLR7 and TLR8. Therefore, we treated HEK-293 cells expressing human TLR7 or TLR8 (hereafter, TLR7- and TLR8-HEK-293 cells, respectively) with Dotap alone or with Dotap formulations of miR-16, -21, -29a, or -147 and performed an NF-κB reporter assay. As positive controls Gardiquimod and ssRNA40 were used, specific agonists of TLR7 and TLR8, respectively. […] To confirm this conclusion, transfected were TLR8-HEK-293 cells with a plasmid encoding a dominant negative form of TLR8 (TLR8DN) and treated these cells with the miRNAs of interest. In TLR8DN cells, the activation of NF-κB by miR-21 and miR-29a was abolished (FIG. 3F). […] NF-κB activity was assessed by QUANTI-Blue Assay (Invivogen). […] Levels of SEAP can be easily determined with QUANTI-Blue, a detection medium that turns purple/blue in the presence of alkaline phosphatase. […] The plate was then incubated at 37° C. for 1-3 h and SEAP levels were determined by reading the plate with a spectrophotometer at 620-655 nm (SpectraMax, Molecular Devices).

miR-147: synthetic mature miRNA (SEQ ID NO: 3), sequence similar to RNA33, Dotap formulation (GUGUGUGGAAAUGCUUCUGC; DOTAP formulation, further chemistry not given here)
NF-κB activation: activated
